US10738028B2, “Spiro three-membered ring, spiro five-membered ring peptide deformylase inhibitor and use thereof in antibacteria and anti-tumor” (priority 2016, dated 2020)
Read-outs that look alike come from different tables or passages of the source.

Columns and labels:
Assay type in all cases: cell-based
[1] = system: HCT-116 colorectal cancer cell line; experiment: CCK-8 proliferation inhibition; conditions: concentration of 30 μM, 72 hours, CCK-8; for HCT116 inhibition rate/%: 30 µM
Method in brief: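 Cells seeded at 2000 cells/well, cultured overnight at 37 °C, 5% CO2, then exposed to compound (DMSO; control 1‰ DMSO) for 72 h in McCoy's 5A with 10% newborn bovine serum. Viability read with 1:10 diluted CCK-8.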

[2] = system: Moraxella catarrhalis (BCA); experiment: MIC, two-fold agar dilution (CLSI), clinical isolates; conditions: for MIC: Moraxella catarrhalis
Method in brief: (§1)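 Samples are serially diluted two-fold in agar following CLSI guidance. Plates are then inoculated with the tested strains. The lowest inhibiting concentration is recorded as MIC.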

[3] = system: methicillin-sensitive Staphylococcus aureus (MSSA); experiment: as above
Method in brief: as §1

[4] = system: methicillin-resistant Staphylococcus aureus (MRSA); experiment: as above
Method in brief: as §1

[5] = system: Enterococcus faecalis (EFA); experiment: as above
Method in brief: as §1

[6] = system: methicillin-resistant Staphylococcus epidermidis (MRSE); experiment: as above
Method in brief: as §1

[7] = system: Escherichia coli (including ESBLs, non-ESBLs); experiment: as above
Method in brief: as §1

[8] = system: methicillin-sensitive Staphylococcus epidermidis (MSSE); experiment: as above
Method in brief: as §1

[9] = system: Streptococcus pneoumoniae (SPN); experiment: as above
Method in brief: as §1

[10] = system: Enterococcus faecium (EFM); experiment: as above
Method in brief: as §1

[11] = system: MGC-803 gastric cancer cell line; experiment: CCK-8 proliferation inhibition; conditions: concentration of 30 μM; for inhibition at 30 µM: Homo sapiens, MGC-803, 72 h
Description: (§2) 2. The present invention adopts the CCK-8 method to determine the proliferation inhibition effect of the spiro three-membered ring, spiro five-membered ring peptide deformylase inhibitor as described in Examples 1-80 against colorectal cancer cells, lung cancer cells, gastric cancer cells, liver cancer cells, and the like. […] The compound having the best activity synthesized in Example 64 was further tested for its inhibitory activity against other tumor cells including T cell leukemia, acute myeloid leukemia, cervical cancer, breast cancer, prostate cancer and osteosarcoma, and the like (see Table 7).
(§3) (1) HCT-116 colorectal cancer cell line, A549 lung cancer cell line, MGC-803 gastric cancer cell line, BEL-7402 liver cancer cell line, Jurkat T cell leukemia cell line, HL60 acute myeloid leukemia cell line, Hela cervical cancer cell line, MCF-7 breast cancer cell line, PC3 prostate cancer cell line and SAOS-2 osteosarcoma cell line were made into single cell suspension, 180 μL of which was inoculated into 96-well culture plate, which was cultured overnight in CO2 incubator (37° C., 5% CO2, 95% air).
(§4) (2) Each of the spiro three-membered ring, spiro five membered ring peptide deformylase inhibitors was dissolved in DMSO, and was further formulated into drug solution with required different final concentration using corresponding cell culture medium. The drug solutions were added to the above cells respectively (20 μL/well), with the control group added with 1‰ DMSO, and cultured in a CO2 incubator for 72 hours.
(§5) (3) After incubation for 72 hours, the culture solution was decanted, and 100 μL of 1:10 diluted CCK-8 solution was added.
(§6) Wherein, in step (1), the concentration of the single cell suspension was 2000 cells/well.
(§7) Wherein, in step (2), HCT-116 cells were cultured in McCoy's 5A medium (containing 10% newborn bovine serum, 1% double antibody); A549 and PC3 cells were cultured in F12 medium (containing 10% newborn bovine serum, 1% double antibody); MGC-803, BEL-7402, SAOS-2, Jurkat and HL60 cells were cultured in 1640 medium (containing 10% newborn bovine serum, 1% double antibody); and MCF-7 and Hela cells were cultured in DMEM high glucose medium (containing 10% newborn bovine serum, 1% double antibody).

[12] = system: BEL-7402 liver cancer cell line; experiment: CCK-8 proliferation inhibition; conditions: concentration of 30 μM; for Inhibition of proliferation, Liver cancer BEL-7402: 72 hours, 30 µM
Description: as §2, §3, §4, §5, §6, §7

[13] = system: A549 lung cancer cell line; experiment: CCK-8 proliferation inhibition; conditions: Homo sapiens, A549, 72 h, concentration of 30 μM
Description: as §2, §3, §4, §5, §6, §7

O=CN(O)C[C@@H](CC1CCCC1)C(=O)N1CC2(CC2)C[C@H]1C(=O)Nc1nccs1 (stereo in doubt) [Example 40, (S)-5-((S)-3-cyclopentyl-2-((N-hydroxyformamido)methyl)propionyl)-N-(thiazol-2-yl)-5-spiro[2.4]heptane-6-carboxamide]
32 µg/mL: Anti-bacterial activity (MIC), strain ECO+ 15-1 ([7]; clinical isolate ECO+ 15-1) | Anti-bacterial activity (MIC), strain ECO+ 15-2 ([7]; clinical isolate ECO+ 15-2) | Anti-bacterial activity (MIC), strain ECO+ 15-3 ([7]; clinical isolate ECO+ 15-3) | Anti-bacterial activity (MIC), strain ECO+ 15-4 ([7]; clinical isolate ECO+ 15-4) | Anti-bacterial activity (MIC), strain ECO− 15-1 ([7]; clinical isolate ECO− 15-1) | Anti-bacterial activity (MIC), strain ECO− 15-2 ([7]; clinical isolate ECO− 15-2) | Anti-bacterial activity (MIC), strain ECO− 15-3 ([7]; clinical isolate ECO− 15-3) | Anti-bacterial activity (MIC), strain ECO− 15-4 ([7]; clinical isolate ECO− 15-4)
0.2 µg/mL: Anti-bacterial activity (MIC), strain BCA 14-10 ([2]; clinical isolate BCA 14-10)
63%: Inhibition of proliferation, Gastric cancer MGC-803 ([11]; 72 hours, 30 µM)
73%: Inhibition of proliferation, Liver cancer BEL-7402 [12]
0.5 µg/mL: Anti-bacterial activity (MIC), strain BCA 14-5 ([2]; clinical isolate BCA 14-5) | Anti-bacterial activity (MIC), strain BCA 14-6 ([2]; clinical isolate BCA 14-6) | Anti-bacterial activity (MIC), strain BCA 14-8 ([2]; clinical isolate BCA 14-8) | Anti-bacterial activity (MIC), strain MSSA 15-3 ([3]; clinical isolate MSSA 15-3) | Anti-bacterial activity (MIC), strain MSSA 15-4 ([3]; clinical isolate MSSA 15-4) | Anti-bacterial activity (MIC), strain MSSA 15-5 ([3]; clinical isolate MSSA 15-5) | Anti-bacterial activity (MIC), strain MSSA 15-6 ([3]; clinical isolate MSSA 15-6) | Anti-bacterial activity (MIC), strain MRSA 15-1 ([4]; clinical isolate MRSA 15-1) | Anti-bacterial activity (MIC), strain MRSA 15-2 ([4]; clinical isolate MRSA 15-2) | Anti-bacterial activity (MIC), strain MRSE 15-1 ([6]; clinical isolate MRSE 15-1) | Anti-bacterial activity (MIC), strain MRSE 15-2 ([6]; clinical isolate MRSE 15-2) | Anti-bacterial activity (MIC), strain MRSE 15-3 ([6]; clinical isolate MRSE 15-3) | Anti-bacterial activity (MIC), strain MRSE 15-7 ([6]; clinical isolate MRSE 15-7) | Anti-bacterial activity (MIC), strain MSSE 15-3 ([8]; clinical isolate MSSE 15-3) | Anti-bacterial activity (MIC), strain MSSE 15-4 ([8]; clinical isolate MSSE 15-4)
0.25 µg/mL: Anti-bacterial activity (MIC), strain BCA 14-7 ([2]; clinical isolate BCA 14-7) | Anti-bacterial activity (MIC), strain MRSA 15-3 ([4]; clinical isolate MRSA 15-3) | Anti-bacterial activity (MIC), strain MRSA 15-4 ([4]; clinical isolate MRSA 15-4) | Anti-bacterial activity (MIC), strain MSSE 15-5 ([8]; clinical isolate MSSE 15-5) | Anti-bacterial activity (MIC), strain MSSE 15-6 ([8]; clinical isolate MSSE 15-6) | Anti-bacterial activity (MIC), strain SPN 16-2 ([9]; clinical isolate SPN 16-2) | Anti-bacterial activity (MIC), strain EFM 15-3 ([10]; clinical isolate EFM 15-3)
30%: inhibition at 30 µM [13]
78%: HCT116 inhibition rate/% [1]
> 50%: inhibition at 30 µM [11]
4 µg/mL: Anti-bacterial activity (MIC), strain EFA 15-1 ([5]; clinical isolate EFA 15-1) | Anti-bacterial activity (MIC), strain EFA 15-2 ([5]; clinical isolate EFA 15-2) | Anti-bacterial activity (MIC), strain EFA 15-3 ([5]; clinical isolate EFA 15-3) | Anti-bacterial activity (MIC), strain EFA 15-4 ([5]; clinical isolate EFA 15-4) | Anti-bacterial activity (MIC), strain EFA 15-5 ([5]; clinical isolate EFA 15-5) | Anti-bacterial activity (MIC), strain EFA 15-6 ([5]; clinical isolate EFA 15-6) | Anti-bacterial activity (MIC), strain EFA 15-9 ([5]; clinical isolate EFA 15-9) | Anti-bacterial activity (MIC), strain SPN 16-4 ([9]; clinical isolate SPN 16-4)
1 µg/mL: Anti-bacterial activity (MIC), strain BCA 14-1 ([2]; clinical isolate BCA 14-1) | Anti-bacterial activity (MIC), strain BCA 14-4 ([2]; clinical isolate BCA 14-4) | Anti-bacterial activity (MIC), strain EFM 15-1 ([10]; clinical isolate EFM 15-1) | Anti-bacterial activity (MIC), strain EFM 15-2 ([10]; clinical isolate EFM 15-2) | Anti-bacterial activity (MIC), strain EFM 15-4 ([10]; clinical isolate EFM 15-4) | Anti-bacterial activity (MIC), strain EFM 15-5 ([10]; clinical isolate EFM 15-5) | Anti-bacterial activity (MIC), strain EFM 15-6 ([10]; clinical isolate EFM 15-6)

CCCC[C@H](CN(O)C=O)C(=O)N1CC2(CC2)C[C@H]1C(=O)Nc1nccs1 [Example 22]
0.125 µg/mL: MIC (anti-bacterial activity) ([2]; strain BCA 14-7) | MIC (anti-bacterial activity) ([2]; strain BCA 14-10) | MIC (anti-bacterial activity) ([6]; strain MRSE 15-3) | MIC (anti-bacterial activity) ([6]; strain MRSE 15-7)
0.03 µg/mL: MIC (anti-bacterial activity) ([3]; strain MSSA 15-5) | MIC (anti-bacterial activity) ([6]; strain MRSE 15-1) | MIC (anti-bacterial activity) ([8]; strain MSSE 15-4) | MIC (anti-bacterial activity) ([8]; strain MSSE 15-5) | MIC (anti-bacterial activity) ([8]; strain MSSE 15-6)
16 µg/mL: MIC (anti-bacterial activity) ([7]; strain ECO+ 15-1)
0.06 to 0.5 µg/mL: MIC ([2]; 7 clinical isolates, range over strains, read-out: Moraxella catarrhalis (n = 7) MIC)
21%: inhibition at 30 µM [13]
> 50%: inhibition at 30 µM ([1]; Homo sapiens, HCT-116, 72 h, read-out: HCT116 inhibition rate/%) | inhibition at 30 µM ([12]; Homo sapiens, Bel-7402, 72 h)
0.5 µg/mL: MIC (anti-bacterial activity) ([2]; strain BCA 14-1) | MIC (anti-bacterial activity) ([2]; strain BCA 14-8) | MIC (anti-bacterial activity) ([9]; strain SPN 16-4) | MIC (anti-bacterial activity) ([10]; strain EFM 15-1) | MIC (anti-bacterial activity) ([10]; strain EFM 15-4) | MIC (anti-bacterial activity) ([10]; strain EFM 15-6)
2 µg/mL: MIC (anti-bacterial activity) ([5]; strain EFA 15-1) | MIC (anti-bacterial activity) ([5]; strain EFA 15-2) | MIC (anti-bacterial activity) ([5]; strain EFA 15-4) | MIC (anti-bacterial activity) ([5]; strain EFA 15-5) | MIC (anti-bacterial activity) ([5]; strain EFA 15-6) | MIC (anti-bacterial activity) ([5]; strain EFA 15-9) | MIC (anti-bacterial activity) ([9]; strain SPN 16-2) | MIC (anti-bacterial activity) ([10]; strain EFM 15-2)
32 µg/mL: MIC (anti-bacterial activity) ([7]; strain ECO+ 15-3) | MIC (anti-bacterial activity) ([7]; strain ECO+ 15-4) | MIC (anti-bacterial activity) ([7]; strain ECO− 15-1)
51%: Inhibition of proliferation, Liver cancer BEL-7402 [12]
0.06 µg/mL: MIC (anti-bacterial activity) ([2]; strain BCA 14-5) | MIC (anti-bacterial activity) ([2]; strain BCA 14-6) | MIC (anti-bacterial activity) ([3]; strain MSSA 15-3) | MIC (anti-bacterial activity) ([3]; strain MSSA 15-4) | MIC (anti-bacterial activity) ([3]; strain MSSA 15-6) | MIC (anti-bacterial activity) ([4]; strain MRSA 15-1) | MIC (anti-bacterial activity) ([4]; strain MRSA 15-3) | MIC (anti-bacterial activity) ([6]; strain MRSE 15-2) | MIC (anti-bacterial activity) ([8]; strain MSSE 15-3)
64 µg/mL: MIC (anti-bacterial activity) ([7]; strain ECO+ 15-2) | MIC (anti-bacterial activity) ([7]; strain ECO− 15-2) | MIC (anti-bacterial activity) ([7]; strain ECO− 15-3) | MIC (anti-bacterial activity) ([7]; strain ECO− 15-4)
0.25 µg/mL: MIC (anti-bacterial activity) ([2]; strain BCA 14-4) | MIC (anti-bacterial activity) ([4]; strain MRSA 15-2) | MIC (anti-bacterial activity) ([4]; strain MRSA 15-4) | MIC (anti-bacterial activity) ([10]; strain EFM 15-3) | MIC (anti-bacterial activity) ([10]; strain EFM 15-5)
14%: inhibition at 30 µM [11]
≥ 0.06 µg/mL: MIC ([2]; lowest MIC reached, read-out: minimum inhibitory concentration against Moraxella catarrhalis, as low as)
52%: HCT116 inhibition rate/% [1]
1 µg/mL: MIC (anti-bacterial activity) ([5]; strain EFA 15-3)
